Assay [1] addresses S. aureus class II fructose 1,6-bisphosphate aldolase (SaFBA) (Staphylococcus aureus, UniProt Q5HE75). Briefly: biochemical. The note with it: read-out: % inhibition at 25 μM.
Assay [2] addresses M. tuberculosis class II fructose 1,6-bisphosphate aldolase (MtFBA) (Mycobacterium tuberculosis, UniProt P9WQA3). Briefly: X-ray crystal structure. Format: binding.
Assay [3] addresses E. coli class II fructose 1,6-bisphosphate aldolase (EcFBA) (Escherichia coli, UniProt P0AB71). The assay can be described thus: coupled fluorescence FBP cleavage assay, single concentration. The format is biochemical. The note with it: read-out: % inhibition at 25 μM.

Molecules are shown by their SMILES.

M. tuberculosis class II fructose 1,6-bisphosphate aldolase (MtFBA), sequence (P9WQA3 whole entry): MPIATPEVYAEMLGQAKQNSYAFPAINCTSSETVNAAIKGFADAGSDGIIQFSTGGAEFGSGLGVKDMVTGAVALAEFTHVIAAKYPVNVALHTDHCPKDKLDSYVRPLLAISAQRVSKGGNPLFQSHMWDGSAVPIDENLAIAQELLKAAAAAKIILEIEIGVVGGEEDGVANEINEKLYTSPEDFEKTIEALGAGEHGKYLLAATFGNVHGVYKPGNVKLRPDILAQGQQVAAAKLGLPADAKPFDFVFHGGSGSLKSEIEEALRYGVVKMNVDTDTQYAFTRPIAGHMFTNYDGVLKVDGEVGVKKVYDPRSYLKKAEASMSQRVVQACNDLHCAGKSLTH
E. coli class II fructose 1,6-bisphosphate aldolase (EcFBA), sequence (P0AB71 2-359): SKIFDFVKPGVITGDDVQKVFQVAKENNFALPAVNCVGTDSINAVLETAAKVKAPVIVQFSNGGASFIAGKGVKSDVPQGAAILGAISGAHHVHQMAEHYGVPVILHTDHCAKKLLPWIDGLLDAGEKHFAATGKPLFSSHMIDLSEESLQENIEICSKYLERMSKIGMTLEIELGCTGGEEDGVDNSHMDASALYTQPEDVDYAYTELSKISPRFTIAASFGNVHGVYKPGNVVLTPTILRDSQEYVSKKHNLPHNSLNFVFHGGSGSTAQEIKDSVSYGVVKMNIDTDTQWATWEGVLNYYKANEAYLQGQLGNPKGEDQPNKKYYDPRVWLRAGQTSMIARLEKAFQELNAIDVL
S. aureus class II fructose 1,6-bisphosphate aldolase (SaFBA), sequence (Q5HE75 whole entry): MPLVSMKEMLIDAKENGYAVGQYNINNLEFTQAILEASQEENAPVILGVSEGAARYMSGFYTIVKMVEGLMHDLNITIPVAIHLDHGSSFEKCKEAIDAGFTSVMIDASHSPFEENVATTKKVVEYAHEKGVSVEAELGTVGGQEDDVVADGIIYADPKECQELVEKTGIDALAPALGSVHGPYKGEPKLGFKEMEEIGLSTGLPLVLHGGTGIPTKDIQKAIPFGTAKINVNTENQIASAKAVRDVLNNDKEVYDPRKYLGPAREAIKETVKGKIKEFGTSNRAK

As a reminder, the inhibition is how much of the control response was suppressed. A word on the Kd: it is the free concentration of one partner at which half of the binding sites on the other are occupied at equilibrium, for simple one-to-one binding. On to `O=C(O)c1ccc2cccc(O)c2n1` [HCA, 8-hydroxyquinoline-2-carboxylic acid], for which the inhibition at 25 µM in assay [1] was 64.3 ± 0.6%; in assay [3], 42.2 ± 2.8%. This molecule yielded a dissociation constant Kd in assay [2] of 70.8 ± 2.7 µM.
